IC50 data for 27 compounds are collected here from patent publication US8329904B2, “Azacyclic derivatives” (Hoffmann-La Roche Inc., priority 2009, dated 2012).

For the assay, the target named is T1, human HSL (Homo sapiens, UniProt Q05469).
T1 construct: overlapping PCR to generate a full length human HSL ORF with a 3′-His6 tag; His6 (C); made in house; host or cells: High 5 insect cells (baculovirus, pFast-BAC)
T1 sequence (Q05469 1-1076): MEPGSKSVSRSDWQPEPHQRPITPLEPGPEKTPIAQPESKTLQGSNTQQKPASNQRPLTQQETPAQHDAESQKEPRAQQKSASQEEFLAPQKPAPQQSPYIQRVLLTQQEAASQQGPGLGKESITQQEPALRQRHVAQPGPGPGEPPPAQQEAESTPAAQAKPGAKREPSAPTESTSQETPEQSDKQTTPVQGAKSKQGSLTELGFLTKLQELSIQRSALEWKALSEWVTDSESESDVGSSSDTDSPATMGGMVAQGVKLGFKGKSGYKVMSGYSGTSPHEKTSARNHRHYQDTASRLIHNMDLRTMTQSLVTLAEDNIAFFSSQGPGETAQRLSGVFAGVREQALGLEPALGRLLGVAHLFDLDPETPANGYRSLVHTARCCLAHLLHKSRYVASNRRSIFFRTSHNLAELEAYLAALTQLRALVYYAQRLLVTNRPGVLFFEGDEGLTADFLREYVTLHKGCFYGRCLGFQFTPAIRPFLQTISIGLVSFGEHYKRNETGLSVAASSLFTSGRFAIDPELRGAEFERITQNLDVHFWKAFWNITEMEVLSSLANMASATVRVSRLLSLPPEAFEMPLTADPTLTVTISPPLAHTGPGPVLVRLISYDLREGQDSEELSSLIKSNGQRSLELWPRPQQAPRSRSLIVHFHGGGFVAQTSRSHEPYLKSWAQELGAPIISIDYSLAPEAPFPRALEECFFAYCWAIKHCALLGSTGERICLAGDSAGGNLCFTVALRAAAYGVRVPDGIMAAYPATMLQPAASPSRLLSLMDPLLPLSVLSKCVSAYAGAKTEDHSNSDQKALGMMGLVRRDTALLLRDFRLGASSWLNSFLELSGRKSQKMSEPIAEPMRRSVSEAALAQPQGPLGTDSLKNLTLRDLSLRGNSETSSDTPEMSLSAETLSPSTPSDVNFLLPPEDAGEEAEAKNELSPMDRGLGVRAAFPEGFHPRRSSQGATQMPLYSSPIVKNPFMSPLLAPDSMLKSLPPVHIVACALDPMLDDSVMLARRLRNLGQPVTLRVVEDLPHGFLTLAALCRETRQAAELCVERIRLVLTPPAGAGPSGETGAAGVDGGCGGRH
Kind of assay: Human Hormone-Sensitive Lipase (HSL) Enzyme Inhibition Assay. The format is biochemical. Conditions: colorimetric assay, 2,3-dimercapto-1-propanol tributyrate (DMPT) substrate, 37° C. for 20 minutes, absorbance at 405 nm; read-out: HSL hum IC50. In a few lines:
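Colorimetric thioester hydrolysis: compounds in DMSO series mixed with DMPT (1.5 mM) in MOPS pH 7.2 with BSA, then baculovirus-expressed His6-tagged full-length human HSL added, 37° C, 20 min. DTNB plus detergents added, 15 min room temperature, absorbance at 405 nm.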

As for `O=C1N(c2ccc(/C=C/C3CC3)cc2)CCC12CCN(S(=O)(=O)c1ccccc1OC(F)(F)F)CC2` [Example 145, 2-[4-((E)-2-Cyclopropyl-vinyl)-phenyl]-8-(2-trifluoromethoxy-benzenesulfonyl)-2,8-diaza-spiro[4.5]decan-1-one], the IC50 stood at 120 nM.

`COCCCc1ccc(N2CCC3(CCN(S(=O)(=O)c4ccccc4OC(F)(F)F)CC3)C2=O)cc1` [Example 146, 2-[4-(3-Methoxy-propyl)-phenyl]-8-(2-trifluoromethoxy-benzenesulfonyl)-2,8-diaza-spiro[4.5]decan-1-one]: the IC50 was 50 nM.

Turning to `O=C1N(c2ccc(CCC3CC3)cc2)CCC12CCN(S(=O)(=O)c1ccccc1OC(F)(F)F)CC2` [Example 147, 2-[4-(2-Cyclopropyl-ethyl)-phenyl]-8-(2-trifluoromethoxy-benzenesulfonyl)-2,8-diaza-spiro[4.5]decan-1-one], the IC50 is 60 nM.

For the compound `O=C1N(c2ccc(COCC3CC3)cc2)CCC12CCN(S(=O)(=O)c1ccccc1Cl)CC2` [Example 148, 8-(2-Chloro-benzenesulfonyl)-2-(4-cyclopropylmethoxymethyl-phenyl)-2,8-diaza-spiro[4.5]decan-1-ones], the half-maximal inhibitory concentration (IC50) was 90 nM.

`CCOCc1ccc(N2CCC3(CCN(S(=O)(=O)c4ccccc4Cl)CC3)C2=O)cc1` [Example 149, 8-(2-Chloro-benzenesulfonyl)-2-(4-ethoxymethyl-phenyl)-2,8-diaza-spiro[4.5]decan-1-one]: the half-maximal inhibitory concentration (IC50) worked out at 40 nM.

Turning to `COC(=O)c1ccc(N2CCC3(CCN(S(=O)(=O)c4ccccc4Cl)CC3)C2=O)cc1` [Example 150, 8 4-[8-(2-Chloro-benzenesulfonyl)-1-oxo-2,8-diaza-spiro[4.5]dec-2-yl]-benzoic acid methyl ester], the IC50 was 40 nM.

Regarding `CC(=O)c1ccc(N2CCC3(CCN(S(=O)(=O)c4ccccc4Cl)CC3)C2=O)cc1` [Example 151, 2-(4-Acetyl-phenyl)-8-(2-chloro-benzenesulfonyl)-2,8-diaza-spiro[4.5]decan-1-one], the half-maximal inhibitory concentration (IC50) was found to be 50 nM.

Turning to `O=C1N(c2ccc(C(O)C(F)(F)F)cc2)CCC12CCN(S(=O)(=O)c1ccccc1Cl)CC2` (stereo not drawn) [Example 152, 8-(2-Chloro-benzenesulfonyl)-2-[4-(2,2,2-trifluoro-1-hydroxy-ethyl)-phenyl]-2,8-diaza-spiro[4.5]decan-1-one], the IC50 came out at 20 nM.

With `CC(O)c1ccc(N2CCC3(CCN(S(=O)(=O)c4ccccc4Cl)CC3)C2=O)cc1` (stereo not drawn) [Example 153, 8-(2-Chloro-benzenesulfonyl)-2-[4-(1-hydroxy-ethyl)-phenyl]-2,8-diaza-spiro[4.5]decan-1-one], the 50% inhibitory concentration (IC50) is 100 nM.

`O=C1N(c2cc(C(F)(F)F)ccc2Cl)CCC12CCN(S(=O)(=O)c1ccccc1Cl)CC2` [Example 154, 8-(2-Chloro-benzenesulfonyl)-2-(2-chloro-5-trifluoromethyl-phenyl)-2,8-diaza-spiro[4.5]decan-1-one]: the IC50 was determined as 210 nM.

On to `CC(O)(c1ccc(N2CCC3(CCN(S(=O)(=O)c4ccccc4Cl)CC3)C2=O)cc1)C(F)(F)F` (stereo not drawn) [Example 155, 8-(2-Chloro-benzenesulfonyl)-2-[4-(2,2,2-trifluoro-1-hydroxy-1-methyl-ethyl)-phenyl]-2,8-diaza-spiro[4.5]decan-1-one], for which the half-maximal inhibitory concentration (IC50) came out at 20 nM.

For the compound `CCS(=O)(=O)c1ccc(N2CCC3(CCN(S(=O)(=O)c4ccccc4Cl)CC3)C2=O)cc1` [Example 156, 8-(2-Chloro-benzenesulfonyl)-2-(4-ethanesulfonyl-phenyl)-2,8-diaza-spiro[4.5]decan-1-one], the IC50 is 60 nM.

`O=C1N(c2ccc(C(O)(C(F)(F)F)C(F)(F)F)cc2)CCC12CCN(S(=O)(=O)c1ccccc1Cl)CC2` [Example 157, 8-(2-Chloro-benzenesulfonyl)-2-[4-(2,2,2-trifluoro-1-hydroxy-1-trifluoromethyl-ethyl)-phenyl]-2,8-diaza-spiro[4.5]decan-1-one]: the half-maximal inhibitory concentration (IC50) was 40 nM.

Take `O=C1N(c2ccc(C(F)(F)F)cc2)CCCC12CCN(S(=O)(=O)c1ccccc1Cl)CC2` [Example 158, 9-(2-Chloro-benzenesulfonyl)-2-(4-trifluoromethyl-phenyl)-2,9-diaza-spiro[5.5]undecan-1-one]: the half-maximal inhibitory concentration (IC50) was 120 nM.

Turning to `CCOCc1ccc(N2CCCC3(CCN(S(=O)(=O)c4ccccc4Cl)CC3)C2=O)cc1` [Example 159, 9-(2-Chloro-benzenesulfonyl)-2-(4-ethoxymethyl-phenyl)-2,9-diaza-spiro[5.5]undecan-1-one], the IC50 is 300 nM.

On to `CC(C)NC(=O)c1ccc(N2CCC3(CCN(S(=O)(=O)c4ccccc4Cl)CC3)C2=O)cc1` [Example 160, 4-[8-(2-Chloro-benzenesulfonyl)-1-oxo-2,8-diaza-spiro[4.5]dec-2-yl]-N-isopropyl-benzamide], for which the IC50 stood at 900 nM.

With `CC(C)N(C)C(=O)c1ccc(N2CCC3(CCN(S(=O)(=O)c4ccccc4Cl)CC3)C2=O)cc1` [Example 161, 4-[8-(2-Chloro-benzenesulfonyl)-1-oxo-2,8-diaza-spiro[4.5]dec-2-yl]-N-isopropyl-N-methyl-benzamide], the half-maximal inhibitory concentration (IC50) turned out to be 380 nM.

On to `O=C1N(c2ccc(C(O)C(F)(F)F)cc2)CCC12CCN(S(=O)(=O)c1ccccc1OC(F)(F)F)CC2` (stereo not drawn) [Example 163, 2-[4-(2,2,2-Trifluoro-1-hydroxy-ethyl)-phenyl]-8-(2-trifluoromethoxy-benzenesulfonyl)-2,8-diaza-spiro[4.5]decan-1-one], for which the IC50 was determined as 20 nM.

Take `Cc1noc(C)c1S(=O)(=O)N1CCC2(CCN(c3ccc(C(F)(F)F)cc3)C2=O)CC1` [Example 164, 8-(3,5-Dimethyl-isoxazole-4-sulfonyl)-2-(4-trifluoromethyl-phenyl)-2,8-diaza-spiro[4.5]decan-1-one]: the IC50 stood at 280 nM.

Consider `CC(C)(C)CC(=O)N1CCC2(CC1)CCN(c1ccc(C(O)C(F)(F)F)cc1)C2=O` (stereo not drawn) [Example 165, 8-(3,3-Dimethyl-butyryl)-2-[4-(2,2,2-trifluoro-1-hydroxy-ethyl)-phenyl]-2,8-diaza-spiro[4.5]decan-1-one], for which the concentration for half-maximal inhibition (IC50) stood at 220 nM.

In the case of `O=C1N(c2ccc(C(O)C(F)(F)F)cc2)CCC12CCN(S(=O)(=O)c1ccccc1C(F)(F)F)CC2` (stereo not drawn) [Example 166, 2-(4-(2,2,2-trifluoro-1-hydroxyethyl)phenyl)-8-(2-(trifluoromethyl)phenylsulfonyl)-2,8-diazaspiro[4.5]decan-1-one], the 50% inhibitory concentration (IC50) was 20 nM.

As for `CC(C)CS(=O)(=O)N1CCC2(CCN(c3ccc(C(O)C(F)(F)F)cc3)C2=O)CC1` (stereo not drawn) [Example 167, 8-(isobutylsulfonyl)-2-(4-(2,2,2-trifluoro-1-hydroxyethyl)phenyl)-2,8-diazaspiro[4.5]decan-1-one], the IC50 was determined as 70 nM.

For `CC(C)CS(=O)(=O)N1CCC2(CCN(c3ccc(C(C)(O)C(F)(F)F)cc3)C2=O)CC1` (stereo not drawn) [Example 168, 8-(isobutylsulfonyl)-2-(4-(1,1,1-trifluoro-2-hydroxypropan-2-yl)phenyl)-2,8-diazaspiro[4.5]decan-1-one], the IC50 turned out to be 130 nM.

As to `CC(O)(c1ccc(N2CCC3(CCN(S(=O)(=O)c4ccccc4C(F)(F)F)CC3)C2=O)cc1)C(F)(F)F` (stereo not drawn) [Example 169, 2-(4-(1,1,1-trifluoro-2-hydroxypropan-2-yl)phenyl)-8-(2-(trifluoromethyl)phenylsulfonyl)-2,8-diazaspiro[4.5]decan-1-one], the concentration for half-maximal inhibition (IC50) was 30 nM.

As for `O=C1N(c2ccc(C(O)C(F)(F)F)cc2)CCC12CCN(S(=O)(=O)C1CC1)CC2` (stereo not drawn) [Example 170, 8-(Cyclopropylsulfonyl)-2-(4-(2,2,2-trifluoro-1-hydroxyethyl)phenyl)-2,8-diazaspiro[4.5]decan-1-one], the IC50 turned out to be 320 nM.

On to `CC(O)(c1ccc(N2CCC3(CCN(S(=O)(=O)C4CC4)CC3)C2=O)cc1)C(F)(F)F` (stereo not drawn) [Example 171, 8-(Cyclopropylsulfonyl)-2-(4-(1,1,1-trifluoro-2-hydroxypropan-2-yl)phenyl)-2,8-diazaspiro[4.5]decan-1-one], for which the IC50 came to 550 nM.

`CCS(=O)(=O)c1ccc(N2CCC3(CCN(S(=O)(=O)CC(C)(C)C)CC3)C2=O)cc1` [Example 172, 8-(2,2-Dimethyl-propane-1-sulfonyl)-2-(4-ethanesulfonyl-phenyl)-2,8-diaza-spiro[4.5]decan-1-one]: the 50% inhibitory concentration (IC50) amounted to 770 nM.

For orientation: IC50 means the concentration that inhibits the measured activity by half.
